Activity calls are given as the source filed them. The calls are words filed in the database; no cut-off is given here.
Assays:
HepG2 [1] = assay: Compound concentration required to inhibit 50% of intracellular replicating HBV (Hepatitis B virus) RI in human hepatoma cell line 2.2.15; type: functional, cell-based
HepG2 [2] = assay: Compound concentration required to inhibit 90% of extracellular replicating HBV (Hepatitis B virus) virion in human hepatoma cell line 2.2.15; type: functional
HepG2 [3] = assay: Compound concentration required to inhibit 90% of intracellular replicating HBV (Hepatitis B virus) RI in human hepatoma cell line 2.2.15; type: functional
HepG2 [4] = assay: Compound concentration required to inhibit 50% of extracellular replicating HBV (Hepatitis B virus) virion in human hepatoma cell line 2.2.15; type: functional, cell-based
[5] = Compound concentration that cause 50% cytotoxicity was determined by neutral red uptake in 2.2.15 Cells; type: cell-based, HepG2 2.2.15; details: human
[6] = Selectivity index (SI) is the ratio of CC50/EC90 for HBV virion; type: functional
[7] = Selectivity index (SI) is the ratio of CC50/EC90 for HBV RI; type: functional
MT4 [8] = assay: Compound was evaluated for the inhibition of replication of HIV-1 in MT-4 (human T helper) cells up to 300 uM; Not active; type: functional, cell-based
MT4 [9] = assay: Compound was evaluated for the inhibition of replication of HIV-1 in MT-4 (human T helper) cells up to 300 uM; not active; type: functional, cell-based

SMILES	EC50 (HepG2 [1]) [µM]	EC90 (HepG2 [2]) [µM]	EC90 (HepG2 [3]) [µM]	EC50 (HepG2 [4]) [µM]	CC50 [5] [µM]	SI [6]	SI [7]	Activity (MT4 [8])	Activity (MT4 [9])
O=c1n([C@H]2CO[C@@H](CO)O2)cc(F)c2nc(CO)cn12	29.1	33.3	66.6	15.1	1060	36	16		
CCOC(=O)c1cn2c(=O)n(C3CSC(CO)O3)ccc2n1 (stereo not given)		> 90		> 90	> 90				
O=c1n([C@H]2CO[C@H](CO)O2)ccc2nc(-c3ccc([N+](=O)[O-])cc3)cn12		108		12.5	517	5.7		inactive	
O=c1n([C@H]2CO[C@H](CO)O2)cc(F)c2nc(CO)cn12		> 105		> 105	1390				
O=c1n([C@H]2CO[C@H](CO)O2)cc(F)c2nc(-c3ccc([N+](=O)[O-])cc3)cn12	12.8	8.8	25	3.7	587	46	24	inactive	
O=c1n(C2COC(CO)O2)ccc2nc(-c3ccc(F)cc3)cn12 (stereo not given)		25.2		4.2	850	34			
O=c1n(C2CSC(CO)O2)ccc2nc(-c3ccc([N+](=O)[O-])cc3)cn12 (stereo not given)				4.8	> 26.7	> 5.6		inactive	
O=c1n(C2CSC(CO)O2)ccc2nc(CO)cn12 (stereo not given)		276		77.7	456	1.7			inactive

Compounds with a lower EC50 (HepG2 [4]), results first:

EC50 (HepG2 [1]) [µM]	EC90 (HepG2 [2]) [µM]	EC90 (HepG2 [3]) [µM]	EC50 (HepG2 [4]) [µM]	SMILES	CC50 [5] [µM]	SI [6]	SI [7]	Activity (MT4 [8])	Activity (MT4 [9])
7.7	5.9	13.6	1.9	O=c1n([C@H]2CO[C@@H](CO)O2)cc(F)c2nc(-c3ccc([N+](=O)[O-])cc3)cn12	1390	180	103		
3.2	6.9	10	1.5	Nc1ccn([C@H]2CC[C@@H](CO)O2)c(=O)n1 [ZALCITABINE]	233		23		
	10.9		2.3	O=c1n([C@H]2CO[C@@H](CO)O2)ccc2nc(-c3ccc([N+](=O)[O-])cc3)cn12	486	45			
	10.5		2	O=c1n(C2COC(CO)O2)ccc2nc(CO)cn12 (stereo not given)	618	59			

From ChEMBL document CHEMBL1129827, “Discovery of imidazo[1,2-c]pyrimidin-5(6H)-one heterosubstituted nucleoside analogues with potent activity against human hepatitis B virus in vitro” (Bioorg Med Chem Lett, 1997)
